Results reported in a compilation of properties of binary mixtures (doi:10.1016/j.molliq.2021.118200).

Assay: xn = mol fraction of the nth substance listed
Settings: 100 kPa

With `CCC(=O)[O-].COCCn1cc[n+](C)c1` + O the electrical conductivity (288.15 K, x1 = 0.8582) was 0.278 S/m, the viscosity (288.15 K, x1 = 0.8582) was 88.4 mPa·s and the electrical conductivity (288.15 K, x1 = 0.9175) was 0.201 S/m. For the same compound, the viscosity (288.15 K, x1 = 0.9175) was 104.5 mPa·s, the electrical conductivity (288.15 K, x1 = 0.9479) was 0.169 S/m and the viscosity (288.15 K, x1 = 0.9479) was 113.9 mPa·s. The electrical conductivity (293.15 K, x1 = 0.8302) was 0.362 S/m, the viscosity (293.15 K, x1 = 0.8302) was 61.46 mPa·s and the electrical conductivity (293.15 K, x1 = 0.8582) was 0.324 S/m. The viscosity (293.15 K, x1 = 0.8582) was 66.3 mPa·s, the electrical conductivity (293.15 K, x1 = 0.8879) was 0.289 S/m and the viscosity (293.15 K, x1 = 0.8879) was 72.1 mPa·s. For the same compound, the electrical conductivity (293.15 K, x1 = 0.9175) was 0.254 S/m, the viscosity (293.15 K, x1 = 0.9175) was 78.1 mPa·s and the electrical conductivity (293.15 K, x1 = 1) was 0.166 S/m. For the same compound, the viscosity (293.15 K, x1 = 1) was 93.3 mPa·s, the electrical conductivity (298.15 K, x1 = 0.8582) was 0.387 S/m and the viscosity (298.15 K, x1 = 0.8582) was 50.5 mPa·s. It also gave an electrical conductivity (298.15 K, x1 = 0.8879) of 0.352 S/m, a viscosity (298.15 K, x1 = 0.8879) of 54.67 mPa·s and an electrical conductivity (298.15 K, x1 = 0.9175) of 0.315 S/m. For the same compound, the viscosity (298.15 K, x1 = 0.9175) was 59.23 mPa·s, the electrical conductivity (303.15 K, x1 = 0.8302) was 0.523 S/m and the viscosity (303.15 K, x1 = 0.8302) was 37.29 mPa·s. The electrical conductivity (303.15 K, x1 = 0.8879) was 0.448 S/m, the viscosity (303.15 K, x1 = 0.8879) was 42.96 mPa·s and the electrical conductivity (303.15 K, x1 = 0.9175) was 0.411 S/m. It also gave a viscosity (303.15 K, x1 = 0.9175) of 46.22 mPa·s, an electrical conductivity (303.15 K, x1 = 0.9479) of 0.378 S/m and a viscosity (303.15 K, x1 = 0.9479) of 49.63 mPa·s. The electrical conductivity (303.15 K, x1 = 1) was 0.32 S/m, the viscosity (303.15 K, x1 = 1) was 54.2 mPa·s and the electrical conductivity (308.15 K, x1 = 0.8302) was 0.625 S/m. It also gave a viscosity (308.15 K, x1 = 0.8302) of 29.69 mPa·s, an electrical conductivity (308.15 K, x1 = 0.8582) of 0.584 S/m and a viscosity (308.15 K, x1 = 0.8582) of 31.71 mPa·s. It also gave an electrical conductivity (308.15 K, x1 = 0.8879) of 0.548 S/m, a viscosity (308.15 K, x1 = 0.8879) of 33.88 mPa·s and an electrical conductivity (308.15 K, x1 = 0.9175) of 0.511 S/m. The viscosity (308.15 K, x1 = 0.9175) was 36.42 mPa·s, the electrical conductivity (308.15 K, x1 = 0.9479) was 0.479 S/m and the viscosity (308.15 K, x1 = 0.9479) was 39.09 mPa·s. The electrical conductivity (308.15 K, x1 = 1) was 0.42 S/m, the viscosity (308.15 K, x1 = 1) was 42.49 mPa·s and the electrical conductivity (313.15 K, x1 = 0.8302) was 0.724 S/m. For the same compound, the viscosity (313.15 K, x1 = 0.8302) was 24.42 mPa·s, the electrical conductivity (313.15 K, x1 = 0.8582) was 0.687 S/m and the viscosity (313.15 K, x1 = 0.8582) was 25.86 mPa·s. The electrical conductivity (313.15 K, x1 = 0.8879) was 0.653 S/m, the viscosity (313.15 K, x1 = 0.8879) was 27.57 mPa·s and the electrical conductivity (313.15 K, x1 = 0.9175) was 0.616 S/m. It also gave a viscosity (313.15 K, x1 = 0.9175) of 29.53 mPa·s, an electrical conductivity (313.15 K, x1 = 1) of 0.532 S/m and a viscosity (313.15 K, x1 = 1) of 33.96 mPa·s. For the same compound, the electrical conductivity (318.15 K, x1 = 0.8302) was 0.881 S/m, the viscosity (318.15 K, x1 = 0.8302) was 18.8 mPa·s and the electrical conductivity (318.15 K, x1 = 0.8879) was 0.799 S/m. For the same compound, the viscosity (318.15 K, x1 = 0.8879) was 21.28 mPa·s, the electrical conductivity (318.15 K, x1 = 0.9175) was 0.759 S/m and the viscosity (318.15 K, x1 = 0.9175) was 22.93 mPa·s. It also gave an electrical conductivity (318.15 K, x1 = 1) of 0.663 S/m and a viscosity (318.15 K, x1 = 1) of 26.51 mPa·s.
`CC(=O)[O-].COCCn1cc[n+](C)c1` + O gave an electrical conductivity (288.15 K, x1 = 0.8396) of 0.351 S/m, a viscosity (288.15 K, x1 = 0.8396) of 74.3 mPa·s and an electrical conductivity (288.15 K, x1 = 0.8663) of 0.313 S/m. The viscosity (288.15 K, x1 = 0.8663) was 76.6 mPa·s, the electrical conductivity (288.15 K, x1 = 0.8945) was 0.278 S/m and the viscosity (288.15 K, x1 = 0.8945) was 78.6 mPa·s. It also gave an electrical conductivity (288.15 K, x1 = 0.9225) of 0.244 S/m, a viscosity (288.15 K, x1 = 0.9225) of 80.4 mPa·s and an electrical conductivity (288.15 K, x1 = 0.9511) of 0.215 S/m. For the same compound, the viscosity (288.15 K, x1 = 0.9511) was 82.1 mPa·s, the electrical conductivity (288.15 K, x1 = 1) was 0.162 S/m and the viscosity (288.15 K, x1 = 1) was 85.1 mPa·s. The electrical conductivity (293.15 K, x1 = 0.8663) was 0.373 S/m, the viscosity (293.15 K, x1 = 0.8663) was 56.95 mPa·s and the electrical conductivity (293.15 K, x1 = 0.9225) was 0.3 S/m. The viscosity (293.15 K, x1 = 0.9225) was 60.54 mPa·s, the electrical conductivity (293.15 K, x1 = 0.9511) was 0.268 S/m and the viscosity (293.15 K, x1 = 0.9511) was 62.23 mPa·s. For the same compound, the electrical conductivity (293.15 K, x1 = 1) was 0.215 S/m, the viscosity (293.15 K, x1 = 1) was 65.09 mPa·s and the electrical conductivity (298.15 K, x1 = 0.8396) was 0.476 S/m. It also gave a viscosity (298.15 K, x1 = 0.8396) of 41.38 mPa·s, an electrical conductivity (298.15 K, x1 = 0.8663) of 0.437 S/m and a viscosity (298.15 K, x1 = 0.8663) of 43.06 mPa·s. For the same compound, the electrical conductivity (298.15 K, x1 = 0.8945) was 0.405 S/m, the viscosity (298.15 K, x1 = 0.8945) was 44.51 mPa·s and the electrical conductivity (298.15 K, x1 = 0.9225) was 0.371 S/m. It also gave a viscosity (298.15 K, x1 = 0.9225) of 45.75 mPa·s, an electrical conductivity (298.15 K, x1 = 0.9511) of 0.342 S/m and a viscosity (298.15 K, x1 = 0.9511) of 46.93 mPa·s. It also gave an electrical conductivity (298.15 K, x1 = 1) of 0.29 S/m, a viscosity (298.15 K, x1 = 1) of 49.12 mPa·s and an electrical conductivity (303.15 K, x1 = 0.8396) of 0.564 S/m. It also gave a viscosity (303.15 K, x1 = 0.8396) of 28.47 mPa·s, an electrical conductivity (303.15 K, x1 = 0.8663) of 0.529 S/m and an electrical conductivity (303.15 K, x1 = 0.9225) of 0.466 S/m. The viscosity (303.15 K, x1 = 0.9225) was 34.3 mPa·s, the electrical conductivity (303.15 K, x1 = 0.9511) was 0.439 S/m and the viscosity (303.15 K, x1 = 0.9511) was 35.83 mPa·s. It also gave an electrical conductivity (303.15 K, x1 = 1) of 0.39 S/m, a viscosity (303.15 K, x1 = 1) of 38.77 mPa·s and an electrical conductivity (308.15 K, x1 = 0.8396) of 0.673 S/m. It also gave a viscosity (308.15 K, x1 = 0.8396) of 24.95 mPa·s, an electrical conductivity (308.15 K, x1 = 0.8945) of 0.604 S/m and a viscosity (308.15 K, x1 = 0.8945) of 26.78 mPa·s. It also gave an electrical conductivity (308.15 K, x1 = 0.9225) of 0.572 S/m, a viscosity (308.15 K, x1 = 0.9225) of 27.6 mPa·s and an electrical conductivity (308.15 K, x1 = 0.9511) of 0.541 S/m. The viscosity (308.15 K, x1 = 0.9511) was 28.32 mPa·s, the electrical conductivity (308.15 K, x1 = 1) was 0.491 S/m and the viscosity (308.15 K, x1 = 1) was 29.64 mPa·s. The electrical conductivity (313.15 K, x1 = 0.8396) was 0.807 S/m, the viscosity (313.15 K, x1 = 0.8396) was 20.97 mPa·s and the electrical conductivity (313.15 K, x1 = 0.8663) was 0.773 S/m. The viscosity (313.15 K, x1 = 0.8663) was 21.65 mPa·s, the electrical conductivity (313.15 K, x1 = 0.8945) was 0.733 S/m and the viscosity (313.15 K, x1 = 0.8945) was 22.3 mPa·s. It also gave an electrical conductivity (313.15 K, x1 = 0.9225) of 0.698 S/m, a viscosity (313.15 K, x1 = 0.9225) of 22.87 mPa·s and an electrical conductivity (313.15 K, x1 = 0.9511) of 0.666 S/m. It also gave a viscosity (313.15 K, x1 = 0.9511) of 23.4 mPa·s, an electrical conductivity (313.15 K, x1 = 1) of 0.611 S/m and a viscosity (313.15 K, x1 = 1) of 24.35 mPa·s. It also gave an electrical conductivity (318.15 K, x1 = 0.8396) of 0.963 S/m, a viscosity (318.15 K, x1 = 0.8396) of 17.28 mPa·s and an electrical conductivity (318.15 K, x1 = 0.8945) of 0.886 S/m. For the same compound, the viscosity (318.15 K, x1 = 0.8945) was 18.26 mPa·s, the electrical conductivity (318.15 K, x1 = 0.9225) was 0.851 S/m and the viscosity (318.15 K, x1 = 0.9225) was 18.74 mPa·s. It also gave an electrical conductivity (318.15 K, x1 = 0.9511) of 0.814 S/m, a viscosity (318.15 K, x1 = 0.9511) of 19.18 mPa·s and an electrical conductivity (318.15 K, x1 = 1) of 0.759 S/m. It also gave a viscosity (318.15 K, x1 = 1) of 19.91 mPa·s.
